Drawing on ChEMBL document CHEMBL1765052, “Developing potent human uric acid transporter 1 (hURAT1) inhibitors” (J Med Chem, 2011), this text covers inhibition and IC50 for 41 compounds.

Experiment [1] concerns the target T1, Solute carrier family 22 member 12 (Homo sapiens, UniProt Q96S37).
T1 sequence (Q96S37 whole entry): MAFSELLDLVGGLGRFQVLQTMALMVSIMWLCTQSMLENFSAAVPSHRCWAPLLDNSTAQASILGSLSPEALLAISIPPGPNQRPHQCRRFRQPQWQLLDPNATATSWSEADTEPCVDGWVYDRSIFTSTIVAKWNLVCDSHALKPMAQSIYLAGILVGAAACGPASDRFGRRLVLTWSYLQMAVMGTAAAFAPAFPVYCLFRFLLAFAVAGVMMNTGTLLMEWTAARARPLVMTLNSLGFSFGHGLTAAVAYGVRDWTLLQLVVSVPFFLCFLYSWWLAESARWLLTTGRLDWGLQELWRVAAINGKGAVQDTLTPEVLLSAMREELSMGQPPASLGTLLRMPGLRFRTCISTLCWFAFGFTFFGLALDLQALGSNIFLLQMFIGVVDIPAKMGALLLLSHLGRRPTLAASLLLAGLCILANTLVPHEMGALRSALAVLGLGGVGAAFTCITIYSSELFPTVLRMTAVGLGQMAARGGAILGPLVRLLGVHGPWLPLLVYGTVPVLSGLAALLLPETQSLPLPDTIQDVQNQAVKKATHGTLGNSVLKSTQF
As to the kind of experiment: Inhibition of human URAT1 expressed in xenopus oocyte assessed as inhibition of [14C]-labelled urate uptake at 50 uM after 60 mins by liquid scintillation counting. The following applies: 1 h.

In experiment [2] the target is T1, Solute carrier family 22 member 12. As to the kind of experiment: Inhibition of human URAT1 expressed in xenopus oocyte assessed as inhibition of [14C]-labelled urate uptake after 60 mins by liquid scintillation counting.

Each structure is given as a SMILES string.

In the case of `CCc1cc2c(C(=O)c3ccc(OC)cc3)c(OC)ccc2o1`, the inhibition at 50 µM in experiment [1] came to 6.1%.
As for `CCc1cc2cc(O)cc(C(=O)c3cc(Br)c(O)c(Br)c3)c2o1`, the inhibition at 50 µM in experiment [1] turned out to be 99.8%.
In the case of `CCc1cc2c(C(=O)c3ccc(O)cc3)cc(OC)cc2o1`, in experiment [1], the inhibition at 50 µM was determined as 62.4%. For the same compound, the IC50 in experiment [2] amounted to 19700 nM.
`CCc1oc2cc(O)ccc2c1C(=O)c1ccc(OC)cc1`: the inhibition at 50 µM in experiment [1] worked out at 48.3%.
Regarding `CCc1oc2c(Br)c(O)c(Br)cc2c1C(=O)c1ccc(OC)cc1`, the inhibition at 50 µM in experiment [1] was 99.8%. The IC50 in experiment [2] was 667 nM.
`CCc1oc2ccc(OC)cc2c1C(=O)c1ccc(OC)cc1`: the inhibition at 50 µM in experiment [1] worked out at 24.3%.
As to `CCc1cc2c(C(=O)c3ccc(OC)cc3)cc(O)cc2o1`, in experiment [1], the inhibition at 50 µM came out at 12.4%.
Still for that read-out and setting: for `CCc1cc2c(C(=O)c3ccc(OC)cc3)cc(OC)cc2o1` the value was 1.5%; for `CCc1oc2ccccc2c1C(=O)c1cc(Br)c(O)c(Br)c1` [BENZBROMARONE], 99.9%; for `CCc1cc2c(C(=O)c3ccc(OC)cc3)c(O)ccc2o1`, 28.7%.
In the case of `CCc1cc2c(C(=O)c3ccc(O)cc3)ccc(O)c2o1`, in experiment [1], the inhibition at 50 µM turned out to be 93.8%. For the same compound, in experiment [2], the IC50 worked out at 3940 nM.
As for `CCc1cc2cc(OC)cc(C(=O)c3ccc(O)cc3)c2o1`, in experiment [1], the inhibition at 50 µM was 60%. In experiment [2], the IC50 came out at 33700 nM.
For the compound `CCc1oc2ccc(O)cc2c1C(=O)c1ccc(OC)cc1`, in experiment [1], the inhibition at 50 µM worked out at 12.9%.
For `CCc1cc2c(C(=O)c3cc(Br)c(O)c(Br)c3)c(O)ccc2o1`, the inhibition at 50 µM in experiment [1] was determined as 99.9%. In addition, the IC50 in experiment [2] worked out at 83 nM.
Regarding `CCc1oc2cc(Br)c(O)c(Br)c2c1C(=O)c1ccc(OC)cc1`, the inhibition at 50 µM in experiment [1] is 76.5%. In addition, the half-inhibitory concentration (IC50) in experiment [2] came out at 23500 nM.
For the compound `CCc1cc2c(C(=O)c3ccc(OC)cc3)ccc(O)c2o1`, the inhibition at 50 µM in experiment [1] worked out at 0.8%.
Take `CCc1cc2c(C(=O)c3ccc(O)cc3)c(OC)ccc2o1`: the inhibition at 50 µM in experiment [1] worked out at 88.2%. Besides, the IC50 in experiment [2] is 6680 nM.
Taken in the same sequence, the figures for `CCc1oc2ccc(O)cc2c1C(=O)c1cc(Br)c(O)c(Br)c1` were 99.9% and 189 nM.
As to `CCc1oc2ccccc2c1C(=O)c1ccc(O)cc1` [BENZARONE], the inhibition at 50 µM in experiment [1] is 90.8%.
As for `CCc1cc2c(C(=O)c3ccc(OC)cc3)ccc(OC)c2o1`, in experiment [1], the inhibition at 50 µM was determined as 7.4%.
As to `CCc1oc2cc(O)ccc2c1C(=O)c1ccc(O)cc1`, in experiment [1], the inhibition at 50 µM worked out at 92.1%. For the same compound, in experiment [2], the IC50 was found to be 1130 nM.
For `CCc1oc2cc(OC)ccc2c1C(=O)c1ccc(OC)cc1`, in experiment [1], the inhibition at 50 µM was 6.2%.
With `CCc1cc2cc(O)cc(C(=O)c3ccc(O)cc3)c2o1`, the inhibition at 50 µM in experiment [1] came out at 41%.
The same measure, in the same setting: to `CCc1oc2c(OC)cccc2c1C(=O)c1ccc(OC)cc1` belongs 17.2%; to `CCc1oc2cc(O)ccc2c1C(=O)c1cc(Br)c(O)c(Br)c1`, 99.8%.
Consider `CCc1cc2cc(OC)cc(C(=O)c3ccc(OC)cc3)c2o1`, for which the inhibition at 50 µM in experiment [1] is 5.2%.
With `CCc1oc2cc(OC)ccc2c1C(=O)c1ccc(O)cc1`, in experiment [1], the inhibition at 50 µM worked out at 92.7%.
On to `CCc1oc2ccccc2c1C(=O)c1ccc(OC)cc1`, for which the inhibition at 50 µM in experiment [1] worked out at 13.3%.
Take `CCc1oc2ccc(OC)cc2c1C(=O)c1cc(Br)c(O)c(Br)c1`: the inhibition at 50 µM in experiment [1] is 99.9%.
In the case of `CCc1cc2c(C(=O)c3ccc(O)cc3)c(O)ccc2o1`, in experiment [1], the inhibition at 50 µM was 51.5%.
With `CCc1oc2ccc(OC)cc2c1C(=O)c1ccc(O)cc1`, in experiment [1], the inhibition at 50 µM came out at 92.7%. Besides, the IC50 in experiment [2] turned out to be 2460 nM.
Consider `CCc1cc2c(C(=O)c3cc(Br)c(O)c(Br)c3)c(OC)ccc2o1`, for which the inhibition at 50 µM in experiment [1] was found to be 99.6%. Moreover, the IC50 in experiment [2] is 358 nM.
`CCc1oc2ccc(O)cc2c1C(=O)c1ccc(O)cc1`: the inhibition at 50 µM in experiment [1] amounted to 96.5%. In addition, in experiment [2], the IC50 is 2490 nM.
With `CCc1oc2c(O)cccc2c1C(=O)c1ccc(OC)cc1`, in experiment [1], the inhibition at 50 µM stood at 18.2%.
Turning to `CCc1cc2c(C(=O)c3ccc(O)cc3)cc(O)cc2o1`, the inhibition at 50 µM in experiment [1] turned out to be 41%.
Turning to `CCc1cc2cc(O)cc(C(=O)c3ccc(OC)cc3)c2o1`, the inhibition at 50 µM in experiment [1] turned out to be 9.3%.
`CCc1cc2c(C(=O)c3cc(Br)c(O)c(Br)c3)cc(Br)c(O)c2o1`: the inhibition at 50 µM in experiment [1] is 99.9%. Further, the half-maximal inhibitory concentration (IC50) in experiment [2] is 177 nM.
Turning to `CCc1cc2cc(OC)cc(C(=O)c3cc(Br)c(O)c(Br)c3)c2o1`, the inhibition at 50 µM in experiment [1] was 99%.
As for `CCc1cc2c(C(=O)c3ccc(OC)cc3)cc(Br)c(O)c2o1`, in experiment [1], the inhibition at 50 µM was 99.3%. For the same compound, the IC50 in experiment [2] was 772 nM.
With `CCCN(CCC)S(=O)(=O)c1ccc(C(=O)O)cc1` [PROBENECID], the inhibition at 50 µM in experiment [1] is 35.7%.
In the case of `CCc1oc2cc(OC)ccc2c1C(=O)c1cc(Br)c(O)c(Br)c1`, the inhibition at 50 µM in experiment [1] turned out to be 99.9%.
